Measurements: patent US12247045B2, “MAP4K4 inhibitors” (Imperial College Innovations Limited, priority 2018, dated 2025)
pIC50: −log10 of the molar value. Read-outs that look alike come from different tables or passages of the source.

How the values were obtained:
Type in all cases: biochemical
[1] = target: T1, GCK/MAP4K2 (Homo sapiens, UniProt Q12851); experiment: Kinase selectivity panel, GCK/MAP4K2; conditions: for fold selectivity MAP4K4 over GCK/MAP4K2: in favour of MAP4K4; for IC50: read-out: pIC50 GCK/MAP4K2 (converted)
T1 sequence (Q12851 1-820): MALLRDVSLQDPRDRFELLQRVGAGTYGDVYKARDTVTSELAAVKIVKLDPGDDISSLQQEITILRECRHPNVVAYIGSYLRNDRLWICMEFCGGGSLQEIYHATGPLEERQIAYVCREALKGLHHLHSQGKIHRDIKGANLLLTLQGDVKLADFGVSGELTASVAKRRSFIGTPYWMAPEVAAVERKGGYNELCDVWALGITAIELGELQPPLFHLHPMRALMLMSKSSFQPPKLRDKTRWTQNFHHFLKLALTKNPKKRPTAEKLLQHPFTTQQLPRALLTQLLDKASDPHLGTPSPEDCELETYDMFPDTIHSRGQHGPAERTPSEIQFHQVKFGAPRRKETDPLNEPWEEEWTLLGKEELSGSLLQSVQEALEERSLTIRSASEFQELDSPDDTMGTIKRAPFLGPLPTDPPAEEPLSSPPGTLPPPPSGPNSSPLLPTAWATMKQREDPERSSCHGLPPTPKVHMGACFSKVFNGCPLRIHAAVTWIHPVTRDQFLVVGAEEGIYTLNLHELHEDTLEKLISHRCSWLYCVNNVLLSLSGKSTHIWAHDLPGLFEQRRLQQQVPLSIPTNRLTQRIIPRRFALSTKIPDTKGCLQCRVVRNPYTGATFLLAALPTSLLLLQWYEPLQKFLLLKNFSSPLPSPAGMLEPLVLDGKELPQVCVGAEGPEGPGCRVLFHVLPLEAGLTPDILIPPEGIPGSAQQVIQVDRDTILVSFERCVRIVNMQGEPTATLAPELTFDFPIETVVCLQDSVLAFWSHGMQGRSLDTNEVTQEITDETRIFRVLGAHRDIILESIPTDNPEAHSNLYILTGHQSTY
Description: (§1) The data in Table 42 also provides the fold selectivity of the two compounds in favour of MAP4K4 over the tested kinase. The fold selectivity is indicated in parenthesis.

[2] = target: MLK3/MAP3K11 (Homo sapiens, UniProt Q16584); experiment: Kinase selectivity panel, MLK3/MAP3K11; conditions: for fold selectivity MAP4K4 over MLK3/MAP3K11: in favour of MAP4K4; for IC50: read-out: pIC50 MLK3/MAP3K11 (converted)
Description: as §1

[3] = target: ABL1 (Homo sapiens, UniProt P00519); experiment: Kinase selectivity panel, ABL1; conditions: for fold selectivity MAP4K4 over ABL1: in favour of MAP4K4; for IC50: read-out: pIC50 ABL1 (converted)
Description: as §1

[4] = target: KHS/MAP4K5 (Homo sapiens, UniProt Q9Y4K4); experiment: Kinase selectivity panel, KHS/MAP4K5; conditions: for fold selectivity MAP4K4 over KHS/MAP4K5: in favour of MAP4K4; for IC50: read-out: pIC50 KHS/MAP4K5 (converted)
Description: as §1

[5] = target: T2, GLK/MAP4K3 (Homo sapiens, UniProt Q8IVH8); experiment: Kinase selectivity panel, GLK/MAP4K3; conditions: for fold selectivity MAP4K4 over GLK/MAP4K3: in favour of MAP4K4; for IC50: read-out: pIC50 GLK/MAP4K3 (converted)
T2 sequence (Q8IVH8 1-894): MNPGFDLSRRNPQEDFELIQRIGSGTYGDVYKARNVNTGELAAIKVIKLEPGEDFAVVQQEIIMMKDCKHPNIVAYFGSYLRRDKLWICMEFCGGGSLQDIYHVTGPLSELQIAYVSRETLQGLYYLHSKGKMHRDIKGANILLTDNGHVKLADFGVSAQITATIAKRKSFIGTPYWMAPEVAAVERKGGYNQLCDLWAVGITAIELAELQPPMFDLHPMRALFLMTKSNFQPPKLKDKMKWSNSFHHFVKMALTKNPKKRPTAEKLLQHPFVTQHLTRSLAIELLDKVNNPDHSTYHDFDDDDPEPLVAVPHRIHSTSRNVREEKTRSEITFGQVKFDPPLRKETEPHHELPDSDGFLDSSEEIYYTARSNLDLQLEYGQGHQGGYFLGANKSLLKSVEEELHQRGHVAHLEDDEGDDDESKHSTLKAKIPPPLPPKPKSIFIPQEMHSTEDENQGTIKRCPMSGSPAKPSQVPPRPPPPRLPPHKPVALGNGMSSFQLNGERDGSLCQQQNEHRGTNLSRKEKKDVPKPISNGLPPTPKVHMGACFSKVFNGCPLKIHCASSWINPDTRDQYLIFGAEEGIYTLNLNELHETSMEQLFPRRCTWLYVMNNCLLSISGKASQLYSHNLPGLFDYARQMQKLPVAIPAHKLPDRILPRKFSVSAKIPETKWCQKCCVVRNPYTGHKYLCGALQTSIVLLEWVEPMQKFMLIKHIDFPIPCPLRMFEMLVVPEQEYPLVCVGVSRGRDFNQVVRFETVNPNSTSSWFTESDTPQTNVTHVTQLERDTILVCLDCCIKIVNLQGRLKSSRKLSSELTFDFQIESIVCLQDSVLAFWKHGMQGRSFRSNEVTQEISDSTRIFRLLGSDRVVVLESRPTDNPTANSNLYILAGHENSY
Description: as §1

[6] = target: T3, NUAK1 (Homo sapiens, UniProt O60285); experiment: Kinase selectivity panel, NUAK1; conditions: for fold selectivity MAP4K4 over NUAK1: in favour of MAP4K4; for IC50: read-out: pIC50 NUAK1 (converted)
T3 sequence (O60285 1-661): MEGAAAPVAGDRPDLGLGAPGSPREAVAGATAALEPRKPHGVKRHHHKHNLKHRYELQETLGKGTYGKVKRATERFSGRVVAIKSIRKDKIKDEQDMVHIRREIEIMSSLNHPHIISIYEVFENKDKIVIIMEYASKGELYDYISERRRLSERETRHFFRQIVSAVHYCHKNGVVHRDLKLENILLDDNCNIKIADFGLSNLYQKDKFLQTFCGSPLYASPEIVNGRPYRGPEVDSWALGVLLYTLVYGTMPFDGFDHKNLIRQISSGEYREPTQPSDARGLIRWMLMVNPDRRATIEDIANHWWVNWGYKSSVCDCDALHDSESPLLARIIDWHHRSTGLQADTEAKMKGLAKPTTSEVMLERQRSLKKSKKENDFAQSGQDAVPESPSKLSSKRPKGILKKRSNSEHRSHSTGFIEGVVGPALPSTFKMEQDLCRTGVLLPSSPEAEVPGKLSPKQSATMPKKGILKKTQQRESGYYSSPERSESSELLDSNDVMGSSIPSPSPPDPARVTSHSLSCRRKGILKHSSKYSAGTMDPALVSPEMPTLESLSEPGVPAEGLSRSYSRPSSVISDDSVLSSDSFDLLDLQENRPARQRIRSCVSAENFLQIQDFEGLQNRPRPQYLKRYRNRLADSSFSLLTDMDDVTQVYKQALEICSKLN
Description: as §1

[7] = target: T4, human MAP4K4 kinase domain (Homo sapiens, UniProt O95819); experiment: MAP4K4 kinase activity, CisBio HTRF Transcreener ADP assay; conditions: for pIC50: IC50 category, ATP at Km (10 μM), 0.5 nM kinase domain, 2 h, read-out: MAP4K4; for IC50: read-out: pIC50 MAP4K4 (converted)
T4 construct: 0.5 nM human MAP4K4 kinase domain (Invitrogen); purchased Invitrogen
Description: Compounds of the present invention were screened for their inhibitory activity against MAP4K4, versus selected off-target hits found with early members of this chemical series. MAP4K4 kinase activity was monitored using the CisBio HTRF Transcreener ADP assay, a competitive immunoassay with a reproducible Z′>0.6. In the detection step, endogenous ADP and d2-labeled ADP compete for binding an anti-ADP monoclonal antibody labelled with Eu^3+ cryptate. A ratiometric fluorescent read-out is used at 665 and 620 nm. Reactions were performed in the presence of 1% DMSO with ATP added at Km (10 μM), 0.5 nM human MAP4K4 kinase domain (Invitrogen), 1 μM biotin-myelin basic protein as substrate (Invitrogen), and extension of reaction time to 2 h. Assays were run in Greiner low volume plates with a final reaction volume of 10 μl. The MAP4K4 inhibition data are provided in Table 41 below for selected compounds of the present invention. The data has been categorised based on the IC50 value of the compound as “A”, “B” or “C”. IC50: A≤100 nM; 100 nM<B≤1 μM; 1 μM<C; nd=not determined.

[8] = target: TNIK/MAP4K7 (Homo sapiens, UniProt Q9UKE5); experiment: Kinase selectivity panel, TNIK/MAP4K7; conditions: read-out: pIC50 TNIK/MAP4K7 (converted)
Description: as §1

[9] = target: MINK1/MAP4K6 (Homo sapiens, UniProt Q8N4C8); experiment: Kinase selectivity panel, MINK1/MAP4K6; conditions: read-out: pIC50 MINK1/MAP4K6 (converted)
Description: as §1

[10] = target: MLK1/MAP3K9 (Homo sapiens, UniProt P80192); experiment: Kinase selectivity panel, MLK1/MAP3K9; conditions: for fold selectivity MAP4K4 over MLK1/MAP3K9: in favour of MAP4K4; for IC50: read-out: pIC50 MLK1/MAP3K9 (converted)
Description: as §1

T4 sequence (O95819 25-289 limits assumed): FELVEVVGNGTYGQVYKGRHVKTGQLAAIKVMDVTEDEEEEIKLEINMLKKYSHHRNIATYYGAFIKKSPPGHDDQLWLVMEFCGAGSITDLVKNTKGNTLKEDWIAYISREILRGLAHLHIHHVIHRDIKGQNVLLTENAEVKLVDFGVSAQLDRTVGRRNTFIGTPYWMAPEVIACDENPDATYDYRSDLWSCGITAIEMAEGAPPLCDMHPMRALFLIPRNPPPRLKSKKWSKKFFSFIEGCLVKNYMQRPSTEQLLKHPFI
TNIK/MAP4K7, sequence (Q9UKE5 whole entry): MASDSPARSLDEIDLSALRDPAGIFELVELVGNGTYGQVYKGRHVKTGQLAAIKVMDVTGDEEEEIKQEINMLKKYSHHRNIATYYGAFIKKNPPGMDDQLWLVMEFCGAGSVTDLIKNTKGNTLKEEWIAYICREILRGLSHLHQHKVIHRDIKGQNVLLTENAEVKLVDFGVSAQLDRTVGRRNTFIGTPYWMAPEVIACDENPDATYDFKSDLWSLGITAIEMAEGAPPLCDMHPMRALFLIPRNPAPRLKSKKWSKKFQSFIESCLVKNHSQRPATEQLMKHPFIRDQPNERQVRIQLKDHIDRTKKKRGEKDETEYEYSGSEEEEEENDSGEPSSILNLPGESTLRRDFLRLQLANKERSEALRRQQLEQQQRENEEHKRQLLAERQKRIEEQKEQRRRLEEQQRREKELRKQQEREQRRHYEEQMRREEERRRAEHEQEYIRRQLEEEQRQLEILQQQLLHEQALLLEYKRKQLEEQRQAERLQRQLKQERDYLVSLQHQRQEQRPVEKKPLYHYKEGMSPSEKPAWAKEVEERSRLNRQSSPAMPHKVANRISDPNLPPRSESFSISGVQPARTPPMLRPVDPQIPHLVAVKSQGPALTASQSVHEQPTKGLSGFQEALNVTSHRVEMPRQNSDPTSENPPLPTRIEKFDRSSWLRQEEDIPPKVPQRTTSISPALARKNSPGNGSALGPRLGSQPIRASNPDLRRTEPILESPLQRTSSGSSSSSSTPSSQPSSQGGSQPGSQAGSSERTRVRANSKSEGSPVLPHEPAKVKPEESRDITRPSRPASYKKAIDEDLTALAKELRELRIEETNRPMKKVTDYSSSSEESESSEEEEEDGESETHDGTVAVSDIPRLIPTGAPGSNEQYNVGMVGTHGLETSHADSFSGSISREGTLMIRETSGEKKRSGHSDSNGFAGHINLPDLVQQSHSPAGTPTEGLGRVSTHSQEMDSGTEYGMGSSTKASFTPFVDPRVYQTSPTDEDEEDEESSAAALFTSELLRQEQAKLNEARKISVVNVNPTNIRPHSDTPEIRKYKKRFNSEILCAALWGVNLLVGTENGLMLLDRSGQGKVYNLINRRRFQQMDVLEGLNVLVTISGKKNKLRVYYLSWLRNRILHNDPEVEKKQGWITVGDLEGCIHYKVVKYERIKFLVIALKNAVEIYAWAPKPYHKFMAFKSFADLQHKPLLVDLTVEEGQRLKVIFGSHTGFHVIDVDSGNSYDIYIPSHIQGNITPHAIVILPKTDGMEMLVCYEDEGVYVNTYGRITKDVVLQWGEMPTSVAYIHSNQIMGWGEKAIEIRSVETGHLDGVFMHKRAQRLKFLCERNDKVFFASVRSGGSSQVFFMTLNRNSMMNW
MLK1/MAP3K9, sequence (P80192 whole entry): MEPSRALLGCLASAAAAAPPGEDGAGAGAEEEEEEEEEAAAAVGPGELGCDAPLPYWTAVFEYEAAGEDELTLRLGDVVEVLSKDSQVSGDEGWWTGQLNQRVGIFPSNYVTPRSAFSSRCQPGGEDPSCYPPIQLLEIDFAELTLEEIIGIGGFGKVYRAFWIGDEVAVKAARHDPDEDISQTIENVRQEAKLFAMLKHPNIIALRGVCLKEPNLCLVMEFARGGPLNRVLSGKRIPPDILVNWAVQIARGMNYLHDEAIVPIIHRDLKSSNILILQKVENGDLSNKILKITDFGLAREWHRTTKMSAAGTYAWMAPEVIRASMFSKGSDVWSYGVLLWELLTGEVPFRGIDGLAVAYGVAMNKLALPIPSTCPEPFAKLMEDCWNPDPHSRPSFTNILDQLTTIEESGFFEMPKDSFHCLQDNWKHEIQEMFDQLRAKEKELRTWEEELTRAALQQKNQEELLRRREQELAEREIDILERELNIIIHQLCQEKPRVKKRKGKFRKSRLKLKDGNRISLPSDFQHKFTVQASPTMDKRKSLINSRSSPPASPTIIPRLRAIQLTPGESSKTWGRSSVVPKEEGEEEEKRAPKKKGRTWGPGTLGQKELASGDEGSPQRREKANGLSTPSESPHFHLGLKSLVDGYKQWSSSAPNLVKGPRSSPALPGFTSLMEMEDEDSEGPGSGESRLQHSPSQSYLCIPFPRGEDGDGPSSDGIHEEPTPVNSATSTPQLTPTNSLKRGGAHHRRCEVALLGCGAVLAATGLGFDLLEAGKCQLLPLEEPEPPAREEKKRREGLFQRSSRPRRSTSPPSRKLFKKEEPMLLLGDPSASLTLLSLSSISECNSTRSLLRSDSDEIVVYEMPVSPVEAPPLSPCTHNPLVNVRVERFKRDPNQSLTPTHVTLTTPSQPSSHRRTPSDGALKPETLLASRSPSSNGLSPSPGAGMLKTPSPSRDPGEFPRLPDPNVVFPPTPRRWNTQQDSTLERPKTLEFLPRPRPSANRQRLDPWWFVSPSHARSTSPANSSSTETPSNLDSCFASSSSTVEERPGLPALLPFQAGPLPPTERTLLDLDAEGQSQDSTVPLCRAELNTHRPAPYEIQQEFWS
MLK3/MAP3K11, sequence (Q16584 whole entry): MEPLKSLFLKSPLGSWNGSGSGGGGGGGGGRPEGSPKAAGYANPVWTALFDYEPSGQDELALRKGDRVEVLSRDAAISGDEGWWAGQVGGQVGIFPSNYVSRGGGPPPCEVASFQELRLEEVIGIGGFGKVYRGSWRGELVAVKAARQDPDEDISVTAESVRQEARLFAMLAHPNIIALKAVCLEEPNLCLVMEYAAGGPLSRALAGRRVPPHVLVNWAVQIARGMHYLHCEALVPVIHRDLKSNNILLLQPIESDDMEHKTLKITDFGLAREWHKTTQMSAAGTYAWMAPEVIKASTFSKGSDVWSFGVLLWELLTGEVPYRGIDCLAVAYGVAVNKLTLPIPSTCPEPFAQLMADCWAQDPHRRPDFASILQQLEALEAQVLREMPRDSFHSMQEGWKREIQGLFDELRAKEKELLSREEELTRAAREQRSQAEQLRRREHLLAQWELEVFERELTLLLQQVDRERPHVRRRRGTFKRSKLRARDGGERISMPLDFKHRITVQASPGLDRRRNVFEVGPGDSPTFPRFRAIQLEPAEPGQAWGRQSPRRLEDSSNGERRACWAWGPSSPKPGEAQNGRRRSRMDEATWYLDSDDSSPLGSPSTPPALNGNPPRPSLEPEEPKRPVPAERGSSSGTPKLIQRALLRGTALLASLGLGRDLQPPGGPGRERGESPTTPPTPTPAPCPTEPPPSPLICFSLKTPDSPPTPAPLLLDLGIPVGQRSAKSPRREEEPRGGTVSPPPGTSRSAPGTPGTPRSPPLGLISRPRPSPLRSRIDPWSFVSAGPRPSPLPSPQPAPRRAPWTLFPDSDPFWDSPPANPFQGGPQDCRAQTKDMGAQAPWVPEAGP
KHS/MAP4K5, sequence (Q9Y4K4 whole entry): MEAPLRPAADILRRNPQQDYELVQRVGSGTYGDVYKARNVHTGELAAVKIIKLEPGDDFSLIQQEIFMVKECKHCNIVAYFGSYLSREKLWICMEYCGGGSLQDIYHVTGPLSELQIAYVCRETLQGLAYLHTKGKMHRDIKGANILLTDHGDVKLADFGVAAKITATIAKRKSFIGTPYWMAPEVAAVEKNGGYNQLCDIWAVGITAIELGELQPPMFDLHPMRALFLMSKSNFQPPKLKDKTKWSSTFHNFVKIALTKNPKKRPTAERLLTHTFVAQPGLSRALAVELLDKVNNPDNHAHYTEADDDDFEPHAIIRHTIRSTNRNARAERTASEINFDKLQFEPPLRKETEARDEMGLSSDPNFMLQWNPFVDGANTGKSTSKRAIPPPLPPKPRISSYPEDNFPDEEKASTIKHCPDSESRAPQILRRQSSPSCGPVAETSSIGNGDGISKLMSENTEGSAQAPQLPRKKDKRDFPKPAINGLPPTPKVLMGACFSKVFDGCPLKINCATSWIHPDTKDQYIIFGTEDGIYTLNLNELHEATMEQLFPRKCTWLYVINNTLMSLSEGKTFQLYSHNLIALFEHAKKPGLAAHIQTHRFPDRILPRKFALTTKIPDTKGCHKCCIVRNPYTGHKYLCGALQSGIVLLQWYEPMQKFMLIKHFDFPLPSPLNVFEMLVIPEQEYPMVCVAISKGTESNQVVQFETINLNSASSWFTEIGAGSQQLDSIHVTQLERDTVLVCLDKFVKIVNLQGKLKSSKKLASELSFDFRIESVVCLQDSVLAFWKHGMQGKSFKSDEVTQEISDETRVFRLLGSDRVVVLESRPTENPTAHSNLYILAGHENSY

Compound | fold selectivity MAP4K4 over GCK/MAP4K2 [1] | IC50 [1] | fold selectivity MAP4K4 over MLK3/MAP3K11 [2] | IC50 [2] | fold selectivity MAP4K4 over ABL1 [3] | IC50 [3] | fold selectivity MAP4K4 over KHS/MAP4K5 [4] | IC50 [4] | fold selectivity MAP4K4 over GLK/MAP4K3 [5] | IC50 [5] | fold selectivity MAP4K4 over NUAK1 [6] | IC50 [6] | pIC50 [7] | IC50 [7] | IC50 [8] | IC50 [9] | fold selectivity MAP4K4 over MLK1/MAP3K9 [10] | IC50 [10]
COCCOc1ccc(-c2cn(-c3cccnc3)c3nc[nH]c(=O)c23)cc1 [Ex-67] | (79) fold | 2000 nM | (63) fold | 1580 nM | (>1000) fold | 31600 nM | (63) fold | 1580 nM | (1000) fold | 25100 nM | (50) fold | 1260 nM | ≥ 7.00 | 25.1 nM | 200 nM |  |  | 
O=c1[nH]cnc2c1c(-c1ccc(OCC(O)CN3CCOCC3)cc1)cn2-c1cccnc1 (stereo not shown) [Ex-54] | (5) fold | 158 nM | (13) fold | 398 nM | (126) fold | 3980 nM | (6) fold | 200 nM | (50) fold | 1580 nM | (4) fold | 126 nM | ≥ 7.00 | 31.6 nM | 50.1 nM | 31.6 nM | (100) fold | 3160 nM
O=c1[nH]cnc2c1c(-c1cnn(C3COC3)c1)cn2-c1ccccc1 [Ex-26] | (16) fold | 501 nM | (1) fold | 31.6 nM |  |  |  |  |  |  | (3) fold | 100 nM | ≥ 7.00 | 31.6 nM | 316 nM | 63.1 nM | (8) fold | 126 nM
COc1cc(-c2cn(-c3ccccc3)c3c(=O)[nH]cnc23)ccn1 [Ex-127] |  |  |  |  |  |  |  |  |  |  |  |  | 6.00 to 7.00 |  |  |  |  | 
COCCCOc1ccc(-c2cn(-c3cccnc3)c3nc[nH]c(=O)c23)cc1 [Ex-71] |  |  |  |  |  |  |  |  |  |  |  |  | ≥ 7.00 |  |  |  |  | 
O=c1[nH]cnc2c1c(-c1ccc(OCCCN3CCOCC3)cc1)cn2-c1cccnc1 [Ex-42] |  |  |  |  |  |  |  |  |  |  |  |  | ≥ 7.00 |  |  |  |  | 
CC(C)(O)COc1ccc(-c2cn(-c3cc[n+]([O-])cc3)c3nc[nH]c(=O)c23)cc1 [Ex-98] |  |  |  |  |  |  |  |  |  |  |  |  | 6.00 to 7.00 |  |  |  |  | 
O=c1[nH]cnc2c1c(-c1cnn(CCO)c1)cn2-c1ccccc1 [Ex-27] | (31) fold | 501 nM | (5) fold | 79.4 nM |  |  |  |  |  |  | (13) fold | 200 nM | ≥ 7.00 | 15.8 nM | 20 nM | 10 nM | (5) fold | 79.4 nM
